What was measured:
AGS cells (KRAS G12D) = test: Cell viability assay (Cell Counting Kit-8, 3-day); type: cell-based, human; details: Homo sapiens, 72 h, 72 hrs incubation
Outline: (§1)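 72-hr compound treatment, 0.5% DMSO final; NCI-H358 seeded 5,000 cells/well, AGS and SW620 2,000 cells/well. Endpoint: CCK-8, 2-hr development, OD450 minus OD650.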

[1] = test system: NCI-H358 cells (KRAS G12C); test: Cell viability assay (Cell Counting Kit-8, 3-day); type: cell-based, human; details: Homo sapiens, NCI-H358, 72 h, NCI-H358, 72 hrs incubation
Outline: as §1

SW620 cells (KRAS G12V) = test: Cell viability assay (Cell Counting Kit-8, 3-day); type: cell-based, human; details: Homo sapiens, SW-620; SW620, 72 hrs incubation
Outline: as §1

KRAS G12C-BRAF complex = KRAS G12C-BRAF complex (Homo sapiens (Human), UniProt P01116+P62937, G12C); test: KRAS-BRAF with CYPA (500 nM) interaction assay (TR-FRET, Example 136); type: biochemical; details: KRAS G12C-BRAF disruption
Procedure: In this example, TR-FRET was also used to measure the compound or compound-CYPA dependent disruption of the KRAS G12C-BRAF complex. This protocol was also used to measure disruption of KRAS G12D or KRAS G12V binding to BRAF by a compound of the invention, respectively. In assay buffer containing 25 mM HEPES PH=7.4 (4-(2-hydroxyethyl)-1-piperazineethanesulfonic acid, Thermo, 15630080), 0.002% Tween20, 0.1% BSA, 100 mM NaCl, 5 mM MgCl2, 10 μM GMPPNP (Guanosine 5′-[β,γ-imido]triphosphate trisodium salt hydrate, Sigma, G0635), […] 384-well assay plate at final concentrations of 50 nM, 6.25 nM and 1 nM, respectively. Compound was present in plate wells as a 16-point 3-fold dilution series starting at a final concentration of 10 μM and incubated for 3 hours. A mixture of MAb Anti-6His-XL665 (Cisbio, 61HISXLB) and Mab anti-GST-TB cryptate (Cisbio, 61GSTTLB) was then added at a final concentration of 6.67 nM and 0.21 nM, respectively, and the plate was incubated for an additional 1.5 hours. TR-FRET signal was read on a PHERstar FSX microplate reader (Ex320 nm, Em 665/615 nm). Compounds that facilitate disruption of the KRAS-BRAF complex were identified as those eliciting a decrease in the TR-FRET ratio relative to DMSO control wells.

[2] = test system: phosphorylation of ERK, KRAS G12C in NCI-H358 cells; test: pERK inhibition assay; type: cell-based; details: Homo sapiens, NCI-H358, 4 h
Outline: (§2)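 Cells in RPMI-1640 with 10% FBS were plated overnight (30,000/well H358, 20,000 AGS, 30,000 SW620) and treated 4 h with compounds at 0.5% DMSO. After formaldehyde fixation and methanol permeabilization, pERK was detected by in-cell ELISA with HRP secondary and TMB (OD450); IC50 from 4-parameter fit.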

[3] = test system: phosphorylation of ERK, KRAS G12D in AGS cells; test: pERK inhibition assay; type: cell-based; details: Homo sapiens, AGS, 4 h
Outline: as §2

[4] = test system: phosphorylation of ERK, KRAS G12V in SW620; test: pERK inhibition assay; type: cell-based; details: Homo sapiens, SW-620, 4 h, SW620 cells
Outline: as §2

Sequence of KRAS G12C-BRAF complex (P01116-2 other isoform, or with tags, fused parts or gaps G12C): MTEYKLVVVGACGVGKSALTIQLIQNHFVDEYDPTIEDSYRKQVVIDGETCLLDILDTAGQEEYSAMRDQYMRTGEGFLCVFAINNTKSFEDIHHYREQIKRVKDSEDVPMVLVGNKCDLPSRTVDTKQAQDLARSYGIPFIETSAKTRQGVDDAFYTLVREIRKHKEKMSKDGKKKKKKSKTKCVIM
Sequence of KRAS G12C-BRAF complex (P62937 whole entry): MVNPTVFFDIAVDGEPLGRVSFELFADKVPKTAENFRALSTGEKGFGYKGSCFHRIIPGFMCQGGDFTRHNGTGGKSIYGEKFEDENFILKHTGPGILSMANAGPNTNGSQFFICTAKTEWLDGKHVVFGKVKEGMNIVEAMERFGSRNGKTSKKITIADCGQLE

Row | SMILES | IC50 (AGS cells (KRAS G12D)) | IC50 [1] | IC50 (SW620 cells (KRAS G12V)) | IC50 (KRAS G12C-BRAF complex) | IC50 [2] | IC50 [3] | IC50 [4]
1 | CO[C@@H](C)c1ncc(N2CCN(C)CC2)cc1-c1c2c3cc(cc4c3n1CC(F)(F)C4)-c1csc(n1)C[C@H](NC(=O)[C@H]1C[C@@H]1c1cncnc1)C(=O)N1CCC[C@H](N1)C(=O)OCC(C)(C)C2 (atropisomer, axis not shown; (M)) [Example 95] | 8.7 nM | 4 nM | 1.3 nM | 13.7 nM | 0.5 nM | 3.4 nM | 0.4 nM
2 | CO[C@@H](C)c1ncc(N2CCOCC2)cc1-c1c2c3cc(cc4c3n1CC(F)(F)C4)-c1csc(n1)C[C@H](NC(=O)[C@H]1C[C@@H]1c1cccnc1)C(=O)N1CCC[C@H](N1)C(=O)OCC(C)(C)C2 (atropisomer, axis not shown; (M)) [Example 91, (1S,2S)-N-[(7S,13S)-23,23-difluoro-(20M)-20-[2-[(1S)-1-methoxyethyl]-5-morpholino-3-pyridyl]-17,17-dimethyl-8,14-dioxo-15-oxa-4-thia-9,21,30,31-tetrazahexacyclo[23.3.1.1^2,5.1^9,13.0^19,27.0^21,26]hentriaconta-1 (28),2,5 (31),19,25 (29),26-hexaen-7-yl]-2-(3-pyridyl)cyclopropanecarboxamide] | 9.7 nM | 2.8 nM | 0.6 nM | 8.1 nM | 0.5 nM | 3.2 nM | 0.6 nM
3 | CO[C@@H](C)c1ncc(N2CCN(CCOC3CCOC3)CC2)cc1-c1c2c3cc(cc4c3n1CCC4)-c1csc(n1)C[C@H](NC(=O)[C@H]1[C@H](C)[C@@H]1C)C(=O)N1CCC[C@H](N1)C(=O)OCC(C)(C)C2 (stereo partly drawn) [Example 122, (1r,2R,3S)-N-[(7S,13S)-(20M)-20-[2-[(1S)-1-methoxyethyl]-5-[4-(2-tetrahydrofuran-3-yloxyethyl)piperazin-1-yl]-3-pyridyl]-17,17-dimethyl-8,14-dioxo-15-oxa-4-thia-9,21,30,31-tetrazahexacyclo[23.3.1.1^2,5.1^9,13.0^19,27.0^21,26]hentriaconta-1 (28),2,5 (31), 19,25 (29),26-hexaen-7-yl]-2,3-dimethyl-cyclopropanecarboxamide] | 3.4 nM | 1.8 nM | 0.5 nM | 15.1 nM | 0.6 nM | 3.5 nM | 0.2 nM
4 | CO[C@@H](C)c1ncc(N2CCN(C)CC2)cc1-c1c2c3cc(cc4c3n1CCO4)-c1csc(n1)C[C@H](NC(=O)[C@H]1[C@H](C)[C@@H]1C)C(=O)N1CCC[C@H](N1)C(=O)OCC(C)(C)C2 (atropisomer, axis not shown; (M)) [Example 45, (1r,2S,3R)-N-[(7S,13S)-(20M)-20-[2-[(1S)-1-methoxyethyl]-5-(4-methylpiperazin-1-yl)-3-pyridyl]-17,17-dimethyl-8,14-dioxo-15,24-dioxa-4-thia-9,21,30,31-tetrazahexacyclo[23.3.1.1^2,5.1^9,13.0^19,27.0^21,26]hentriaconta-1 (28),2,5 (31),19,25 (29),26-hexaen-7-yl]-2,3-dimethyl-cyclopropanecarboxamide] | 3.6 nM | 1.8 nM | 0.2 nM | 14.1 nM | 0.6 nM | 2.1 nM | 0.2 nM
5 | CO[C@@H](C)c1ncc(N2CCN(C)CC2)cc1-c1c2c3cc(cc4c3n1CCO4)-c1csc(n1)C[C@H](NC(=O)C1(C)CC1(F)F)C(=O)N1CCC[C@H](N1)C(=O)OCC(C)(C)C2 (stereo partly drawn) [Example 54, 2,2-difluoro-N-[(7S,13S)-(20M)-20-[2-[(1S)-1-methoxyethyl]-5-(4-methylpiperazin-1-yl)-3-pyridyl]-17,17-dimethyl-8,14-dioxo-15,24-dioxa-4-thia-9,21,30,31-tetrazahexacyclo[23.3.1.1^2,5.1^9,13.0^19,27.0^21,26]hentriaconta-1 (29),2,5 (31), 19,25,27-hexaen-7-yl]-1-methyl-cyclopropanecarboxamide] | 36.8 nM | 12.1 nM | 3 nM | 23.3 nM | 1.3 nM | 8.8 nM | 1 nM
6 | CO[C@@H](C)c1ncc(N2CCN3CCCC[C@@H]3C2)cc1-c1c2c3cc(cc4c3n1CCC4)-c1csc(n1)C[C@H](NC(=O)[C@H]1C[C@@H]1c1cccnc1)C(=O)N1CCC[C@H](N1)C(=O)OCC(C)(C)C2 (atropisomer, axis not shown; (M)) [Example 102, (1S,2S)-N-[(7S,13S)-(20M)-20-[5-[(9αR)-1,3,4,6,7,8,9,9a-octahydropyrido[1,2-a]pyrazin-2-yl]-2-[(1S)-1-methoxyethyl]-3-pyridyl]-17,17-dimethyl-8,14-dioxo-15-oxa-4-thia-9,21,30,31-tetrazahexacyclo[23.3.1.1^2,5.1^9,13.0^19,27.0^21,26]hentriaconta-1 (28),2,5 (31),19,25 (29),26-hexaen-7-yl]-2-(3-pyridyl)cyclopropanecarboxamide] | 4.9 nM | 1.2 nM | 0.4 nM | 6.5 nM | 1.1 nM | 2 nM | 0.7 nM
7 | CO[C@@H](C)c1ncc(N2CCN(C)CC2)cc1-c1c2c3cc(cc4c3n1CCC4)-c1csc(n1)C[C@H](NC(=O)[C@H]1C[C@@H]1C(F)F)C(=O)N1CCC[C@H](N1)C(=O)OCC(C)(C)C2 (atropisomer, axis not shown; (M)) [Example 14, (1S,2S)-2-(difluoromethyl)-N-[(7S,13S)-(20M)-20-[2-[(1S)-1-methoxyethyl]-5-(4-methylpiperazin-1-yl)-3-pyridyl]-17,17-dimethyl-8,14-dioxo-15-oxa-4-thia-9,21,30,31-tetrazahexacyclo[23.3.1.1^2,5.1^9,13.0^19,27.0^21,26]hentriaconta-1 (28),2,5 (31),19,25 (29),26-hexaen-7-yl]cyclopropanecarboxamide] | 17.5 nM | 3.6 nM | 1 nM | 22.2 nM | 0.8 nM | 5.6 nM | 0.7 nM
8 | CO[C@@H](C)c1ncc(N2CCOCC2)cc1-c1c2c3cc(cc4c3n1CCC4)-c1csc(n1)C[C@H](NC(=O)[C@@H]1C[C@H]1C1CC1)C(=O)N1CCC[C@H](N1)C(=O)OCC(C)(C)C2 (atropisomer, axis not shown; (M)) [Example 37, (1R,2S)-2-cyclopropyl-N-[(7S,13S)-(20M)-20-[2-[(1S)-1-methoxyethyl]-5-morpholino-3-pyridyl]-17,17-dimethyl-8,14-dioxo-15-oxa-4-thia-9,21,30,31-tetrazahexacyclo[23.3.1.1^2,5.1^9,13.0^19,27.0^21,26]hentriaconta-1 (29),2,5 (31),19,25,27-hexaen-7-yl]cyclopropanecarboxamide] | 28.3 nM | 7.8 nM | 2.1 nM | 20.5 nM | 0.9 nM | 9.1 nM | 0.6 nM

From patent US20240417410A1, “TRICYCLIC COMPOUNDS FOR THE TREATMENT OF CANCER” (Hoffmann-La Roche Inc., priority 2023, published 2024)
